Results taken from PubChem BioAssay (NCI).
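Five compound concentrations were applied to cells in 96-well plates for 48 hours; endpoints were derived by simple linear interpolation of the resulting dose-response curve. GI50 marks 50% less growth. TGI: total growth inhibition.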

Key:
Test in all cases: inhibition of tumour cell growth, NCI panel, 48 h
PC-3 prostate = system: PC-3 prostate
SK-MEL-28 melanoma = system: SK-MEL-28 melanoma
DU-145 prostate = system: DU-145 prostate
T-47D breast = system: T-47D breast
SR leukemia = system: SR leukemia
OVCAR-4 ovarian = system: OVCAR-4 ovarian
LOX IMVI melanoma = system: LOX IMVI melanoma
HOP-62 NSCLC = system: HOP-62 NSCLC
MDA-MB-231 breast = system: MDA-MB-231 breast
SW-620 colon = system: SW-620 colon
A549 NSCLC = system: A549 NSCLC
BT-549 breast = system: BT-549 breast
HL-60(TB) leukemia = system: HL-60(TB) leukemia
UACC-62 melanoma = system: UACC-62 melanoma
HT29 colon = system: HT29 colon
K-562 leukemia = system: K-562 leukemia
HCT-116 colon = system: HCT-116 colon
UO-31 renal = system: UO-31 renal
OVCAR-8 ovarian = system: OVCAR-8 ovarian
UACC-257 melanoma = system: UACC-257 melanoma
SF-268 CNS = system: SF-268 CNS
SK-MEL-2 melanoma = system: SK-MEL-2 melanoma
MOLT-4 leukemia = system: MOLT-4 leukemia
HS 578T breast = system: HS 578T breast
MDA-MB-435 = system: MDA-MB-435
NCI-H460 lung = system: NCI-H460 lung
RXF 393 renal = system: RXF 393 renal
KM12 colon = system: KM12 colon
NCI-H226 lung = system: NCI-H226 lung
HOP-92 NSCLC = system: HOP-92 NSCLC
NCI/ADR-RES ovarian = system: NCI/ADR-RES ovarian
IGROV1 ovarian = system: IGROV1 ovarian
SN12C renal = system: SN12C renal
COLO 205 colon = system: COLO 205 colon
OVCAR-3 ovarian = system: OVCAR-3 ovarian
MALME-3M melanoma = system: MALME-3M melanoma
ACHN renal = system: ACHN renal
SK-MEL-5 melanoma = system: SK-MEL-5 melanoma
A498 renal = system: A498 renal
SF-539 CNS = system: SF-539 CNS
MCF7 breast = system: MCF7 breast
EKVX NSCLC = system: EKVX NSCLC
M14 melanoma = system: M14 melanoma
SNB-75 CNS = system: SNB-75 CNS
CAKI-1 renal = system: CAKI-1 renal
HCT-15 colon = system: HCT-15 colon
HCC-2998 colon = system: HCC-2998 colon
U251 CNS = system: U251 CNS
NCI-H522 lung = system: NCI-H522 lung
786-0 renal = system: 786-0 renal
SF-295 CNS = system: SF-295 CNS
SNB-19 CNS = system: SNB-19 CNS
TK-10 renal = system: TK-10 renal
OVCAR-5 ovarian = system: OVCAR-5 ovarian
SK-OV-3 ovarian = system: SK-OV-3 ovarian

Structure (SMILES): Cc1cc2nc3c4cc(Cl)ccc4n(CC(=O)NCCN(C)C)c3nc2cc1C
- GI50 (PC-3 prostate): 11.1 µM
- TGI (PC-3 prostate): 71.7 µM
- GI50 (SK-MEL-28 melanoma): 1.74 µM
- TGI (SK-MEL-28 melanoma): 3.15 µM
- GI50 (DU-145 prostate): 13.7 µM
- TGI (DU-145 prostate): 26.6 µM
- GI50 (T-47D breast): > 100 µM
- TGI (T-47D breast): > 100 µM
- GI50 (SR leukemia): 2.42 µM
- TGI (SR leukemia): 6.64 µM
- GI50 (OVCAR-4 ovarian): 15.9 µM
- TGI (OVCAR-4 ovarian): 39.2 µM
- GI50 (LOX IMVI melanoma): 1.19 µM
- TGI (LOX IMVI melanoma): 2.49 µM
- GI50 (HOP-62 NSCLC): 11.5 µM
- TGI (HOP-62 NSCLC): 26.4 µM
- GI50 (MDA-MB-231 breast): 2.25 µM
- TGI (MDA-MB-231 breast): 6.58 µM
- GI50 (SW-620 colon): 1.57 µM
- TGI (SW-620 colon): 3.21 µM
- GI50 (A549 NSCLC): 2.02 µM
- TGI (A549 NSCLC): 5.02 µM
- GI50 (BT-549 breast): 13.6 µM
- TGI (BT-549 breast): 26.8 µM
- GI50 (HL-60(TB) leukemia): 1.91 µM
- TGI (HL-60(TB) leukemia): 4.57 µM
- GI50 (UACC-62 melanoma): 2.14 µM
- TGI (UACC-62 melanoma): 5.26 µM
- GI50 (HT29 colon): 1.67 µM
- TGI (HT29 colon): 3.18 µM
- GI50 (K-562 leukemia): 2.28 µM
- TGI (K-562 leukemia): 7.36 µM
- GI50 (HCT-116 colon): 1.73 µM
- TGI (HCT-116 colon): 3.29 µM
- GI50 (UO-31 renal): 1.02 µM
- TGI (UO-31 renal): 2.22 µM
- GI50 (OVCAR-8 ovarian): 1.91 µM
- TGI (OVCAR-8 ovarian): 3.87 µM
- GI50 (UACC-257 melanoma): 1.87 µM
- TGI (UACC-257 melanoma): 3.97 µM
- GI50 (SF-268 CNS): 13.9 µM
- TGI (SF-268 CNS): 30.5 µM
- GI50 (SK-MEL-2 melanoma): 16 µM
- TGI (SK-MEL-2 melanoma): 29.8 µM
- GI50 (MOLT-4 leukemia): 2.2 µM
- TGI (MOLT-4 leukemia): 6.18 µM
- GI50 (HS 578T breast): 13.5 µM
- TGI (HS 578T breast): 35.5 µM
- GI50 (MDA-MB-435): 1.9 µM
- TGI (MDA-MB-435): 3.77 µM
- GI50 (NCI-H460 lung): 1.79 µM
- TGI (NCI-H460 lung): 3.62 µM
- GI50 (RXF 393 renal): 1.67 µM
- TGI (RXF 393 renal): 3.42 µM
- GI50 (KM12 colon): > 100 µM
- TGI (KM12 colon): > 100 µM
- GI50 (NCI-H226 lung): 9.43 µM
- TGI (NCI-H226 lung): 26.1 µM
- GI50 (HOP-92 NSCLC): 2.2 µM
- TGI (HOP-92 NSCLC): 22.8 µM
- GI50 (NCI/ADR-RES ovarian): 5.64 µM
- TGI (NCI/ADR-RES ovarian): 18.5 µM
- GI50 (IGROV1 ovarian): 12.7 µM
- TGI (IGROV1 ovarian): 26.5 µM
- GI50 (SN12C renal): 15.2 µM
- TGI (SN12C renal): 29.4 µM
- GI50 (COLO 205 colon): 75.6 µM
- TGI (COLO 205 colon): > 100 µM
- GI50 (OVCAR-3 ovarian): 14.6 µM
- TGI (OVCAR-3 ovarian): 27.8 µM
- GI50 (MALME-3M melanoma): 1.69 µM
- TGI (MALME-3M melanoma): 3.2 µM
- GI50 (ACHN renal): 1.5 µM
- TGI (ACHN renal): 2.82 µM
- GI50 (SK-MEL-5 melanoma): 1.77 µM
- TGI (SK-MEL-5 melanoma): 3.37 µM
- GI50 (A498 renal): 18 µM
- TGI (A498 renal): 31.8 µM
- GI50 (SF-539 CNS): 1.74 µM
- TGI (SF-539 CNS): 3.21 µM
- GI50 (MCF7 breast): 1.48 µM
- TGI (MCF7 breast): 3.15 µM
- GI50 (EKVX NSCLC): 10.6 µM
- TGI (EKVX NSCLC): 23.3 µM
- GI50 (M14 melanoma): 1.64 µM
- TGI (M14 melanoma): 3.11 µM
- GI50 (SNB-75 CNS): 13.2 µM
- TGI (SNB-75 CNS): 26.5 µM
- GI50 (CAKI-1 renal): 3.46 µM
- TGI (CAKI-1 renal): 18.1 µM
- GI50 (HCT-15 colon): 1.86 µM
- TGI (HCT-15 colon): 4.01 µM
- GI50 (HCC-2998 colon): 11.7 µM
- TGI (HCC-2998 colon): 23.9 µM
- GI50 (U251 CNS): 1.66 µM
- TGI (U251 CNS): 3.1 µM
- GI50 (NCI-H522 lung): 12.7 µM
- TGI (NCI-H522 lung): 25.9 µM
- GI50 (786-0 renal): 1.57 µM
- TGI (786-0 renal): 3.1 µM
- GI50 (SF-295 CNS): 16.4 µM
- TGI (SF-295 CNS): 29.9 µM
- GI50 (SNB-19 CNS): 16.1 µM
- TGI (SNB-19 CNS): 31.2 µM
- GI50 (TK-10 renal): 19.7 µM
- TGI (TK-10 renal): 33.9 µM
- GI50 (OVCAR-5 ovarian): 2.04 µM
- TGI (OVCAR-5 ovarian): 4.68 µM
- GI50 (SK-OV-3 ovarian): 14.3 µM
- TGI (SK-OV-3 ovarian): 29.1 µM
